Data taken from patent US20070203239A1, “Compounds For The Treatment Of An Acute Injury To The Central Nervous System” (Neurotec Pharma, S.L., priority 2004, published 2007).

Assays:
[1] = tested on: AMPA induced rat hippocampal excitotoxic damage; assay: Hippocampal CA1 lesion area (cresyl violet) after stereotaxic intrahippocampal microinjection, AMPA excitotoxicity model; format: in vivo; settings: for area of hippocampal CA1 pyramidal layer lesion: rat dorsal hippocampus, two injections 2 h apart (5.4 mM AMPA and/or 20 μM glibenclamide), 24 hours after lesion, mean ± SEM
Description: (§1) In this neurodegenerative model, rats were anaesthetized with equithesin (a mixture of chloral hydrate and sodium pentobarbitone; 0.3 ml/100 g body wt, i.p.), and placed on a Kopf stereotaxic frame with the incisor bar set at −3.3 mm. Intracerebral injections aimed at the dorsal hippocampus were performed at 3.3 mm caudal to bregma, 2.2 mm lateral, and 2.9 mm ventral from dura (cf. G. Paxinos et al., “The rat brain in stereotaxic coordinates”, Sydney: Academic Press 1986). A volume of 0.5 μl was injected over a period of 5 min.
(§2) Four different groups of rats received two injections in a 2-hour interval as follows: a) sham rats (n=4) received two injections of PBS; b) AMPA rats (n=4) received the first injection of 5.4 mM AMPA and the second of PBS; c) glibenclamide rats (n=4) received two injections of 20 μM glibenclamide; d) AMPA+glibenclamide rats (n=4) received 5.4 mM AMPA+20 μM glibenclamide in the first injection and 20 μM glibenclamide in the second injection. All rats were sacrified 24 hours after the lesion.
(§3) Rats were transcardially perfused with 300 ml of 0.1 M phosphate buffer (PB, pH 7.4) followed by 300 ml ice-cold fixative (flow rate 20 ml/min). The fixative consisted of 4% (w/v) paraformaldehyde in PB. Brains were removed, crioprotected with 15% (w/v) sucrose in PB and then, frozen with dry ice.
Cryostat sections (12 μm) were obtained at the level of dorsal hippocampus (−3.3 mm to bregma). Isolectine B4 (IB4) histochemistry was performed to identify the microglial reaction (cf. C. A. Colton et al., J. Histochem. Cytochem. 1992, vol. 40, pp. 505-12). The hippocampal morphology was studied in Cresyl violet stained sections. […] These parameters were analyzed using a computer-assisted image analysis system (OPTIMAS®, BioScan Inc., Washington, USA). IB4-stained reactive microcytes were counted at ×100 magnification using an ocular grid mounted on a transmission light microscope (Axiolab, Zeiss, Göttingen, Germany). […] Results are expressed as mean ± SEM.

[2] = tested on: hippocampal microglial reaction; assay: Microglial reaction (IB4 histochemistry) after stereotaxic intrahippocampal microinjection, AMPA excitotoxicity model; format: in vivo, rat; settings: for density of reactive microcytes (IB4-stained) / hippocampal microgliosis area: rat dorsal hippocampus, 24 hours after lesion, mean ± SEM, n=4; for hippocampal microgliosis area: two 0.5 μl injections 2 h apart (5.4 mM AMPA and/or 20 μM glibenclamide)
Description: as §1, §2, §3
Cryostat sections (12 μm) were obtained at the level of dorsal hippocampus (−3.3 mm to bregma). Isolectine B4 (IB4) histochemistry was performed to identify the microglial reaction (cf. C. A. Colton et al., J. Histochem. Cytochem. 1992, vol. 40, pp. 505-12). The hippocampal morphology was studied in Cresyl violet stained sections. The area of lesion and the microgliosis evaluation were performed on cresyl violet and IB4-positive stained sections respectively. These parameters were analyzed using a computer-assisted image analysis system (OPTIMAS®, BioScan Inc., Washington, USA). IB4-stained reactive microcytes were counted at ×100 magnification using an ocular grid mounted on a transmission light microscope (Axiolab, Zeiss, Göttingen, Germany). One-way ANOVA was used to compare differences between groups, followed by the LSD post-hoc test. Results are expressed as mean ± SEM.

[3] = rat AMPA hippocampal excitotoxicity model, 20 μM glibenclamide

SMILES | area of hippocampal CA1 pyramidal layer lesion [1] [mm^2] | density of reactive microcytes (IB4-stained) [2] [cells/mm^2] | hippocampal microgliosis area [2] [mm^2] | effect on hippocampal lesion (in words) [1, 3] | effect on microglial activation (in words) [2, 3]
Cc1onc(O)c1CC(N)C(=O)O (stereo not drawn) [AMPA, α-amino-3-hydroxy-5-methylisoxazole-4-propionic] | 0.130±0.015 | 645±59 | 0.44±0.07 | – | –
COc1ccc(Cl)cc1C(=O)NCCc1ccc(S(=O)(=O)NC(=O)NC2CCCCC2)cc1 [glibenclamide] | 0.012±0.0017 | 614±91 | 0.16±0.03 | avoids hippocampal excitotoxic damage | potentiates microglial activation
